Results reported in article PMC9610492, “BRD9 Inhibition by Natural Polyphenols Targets DNA Damage/Repair and Apoptosis in Human Colon Cancer Cells” (Nutrients, 2022).
Where two headings read alike, the source gives them in different places. Blank lines part the entries; values can stand above or below the molecule they belong to.

Tests used:
Assay type in all cases: binding
[1] = target: T1, BRD9 (bromodomain-containing protein 9) (Homo sapiens, UniProt Q9H8M2); experiment: ITC with purified BRD9 (N = […]); BROMOscan […] inhibition at […]
T1 sequence (Q9H8M2 1-597): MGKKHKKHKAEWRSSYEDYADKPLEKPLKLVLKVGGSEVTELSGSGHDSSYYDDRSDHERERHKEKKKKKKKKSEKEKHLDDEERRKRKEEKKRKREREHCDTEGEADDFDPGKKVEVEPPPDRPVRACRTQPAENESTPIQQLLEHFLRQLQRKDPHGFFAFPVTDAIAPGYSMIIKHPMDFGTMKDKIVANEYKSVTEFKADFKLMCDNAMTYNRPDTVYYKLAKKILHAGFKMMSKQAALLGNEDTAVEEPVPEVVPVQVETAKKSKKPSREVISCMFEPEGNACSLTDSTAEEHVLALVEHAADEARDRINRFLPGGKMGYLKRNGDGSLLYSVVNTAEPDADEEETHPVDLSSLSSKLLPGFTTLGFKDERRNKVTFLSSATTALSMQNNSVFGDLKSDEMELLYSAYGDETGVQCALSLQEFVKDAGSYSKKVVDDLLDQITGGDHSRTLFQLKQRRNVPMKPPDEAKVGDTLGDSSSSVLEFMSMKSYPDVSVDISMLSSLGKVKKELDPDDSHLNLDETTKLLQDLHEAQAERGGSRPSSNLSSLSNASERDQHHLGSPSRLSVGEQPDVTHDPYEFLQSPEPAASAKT

[2] = target: T1, BRD9 (bromodomain-containing protein 9); experiment: as above; remark: listed apart in the source
[3] = target: T1, BRD9 (bromodomain-containing protein 9); experiment: BROMOscan at […], blinded positive control

SMILES: O=c1cc(-c2ccc(O)c(O)c2)oc2c([C@@H]3O[C@H](CO)[C@@H](O)[C@H](O)[C@H]3O)c(O)cc(O)c12 [Orientin]
- Kd [1]: 20 µM

SMILES: O=C(CCc1ccc(O)c(O)c1)c1c(O)cc(O)c([C@@H]2O[C@H](CO)[C@@H](O)[C@H](O)[C@H]2O)c1O [Aspalathin]
- Kd [2]: 20 µM

- inhibition at 10 µM [3]: 99%
SMILES: CCn1cc(-c2cccc(C(F)(F)F)c2)c2sc(C(=N)NC3CCS(=O)(=O)CC3)cc2c1=O [iBRD9]
